Results reported in patent US9930892B2, “Molecules having pesticidal utility, and intermediates, compositions, and processes, related thereto” (Dow AgroSciences LLC, priority 2016, dated 2018).

What was measured:
[1] = test system: Beet Armyworm (Spodoptera exigua); experiment: Bioassay on Beet Armyworm (BAW), 128-well diet tray assay; assay type: in vivo; conditions: for BAW % Control (or Mortality) rating: 50 μg/cm^2 on artificial diet, second instar larvae, five to seven days, 25° C.; for mortality at 0.05 µg/cm2 / mortality at 0.5 µg/cm2 / mortality at 5 µg/cm2: Spodoptera exigua, read-out: BAW Percent control (or mortality); for mortality at 0.05 µg/cm2: 0.05 μg/cm^2; for mortality at 0.5 µg/cm2: 0.5 μg/cm^2; for mortality at 5 µg/cm2: 5 μg/cm^2
Method: Bioassays on BAW were conducted using a 128-well diet tray assay. One to five second instar BAW larvae were placed in each well (3 mL) of the diet tray that had been previously filled with 1 mL of artificial diet to which 50 μg/cm^2 of the test molecule (dissolved in 50 μL of 90:10 acetone-water mixture) had been applied (to each of eight wells) and then allowed to dry. Trays were covered with a clear self-adhesive cover and held at 25° C., 14:10 light-dark for five to seven days. Percent mortality was recorded for the larvae in each well; activity in the eight wells was then averaged. The results are indicated in the table entitled “Table ABC: Biological Results” (See Table Section).
(§1) Bioassays on BAW and CL were conducted according to the procedures outlined in Example A: Bioassays on Beet Armyworm (“BAW”) and Cabbage Looper (“CL”) using the indicated concentrations.

[2] = test system: Cabbage Looper (Trichoplusia ni); experiment: Bioassay on Cabbage Looper (CL), 128-well diet tray assay; assay type: in vivo; conditions: for CL % Control (or Mortality) rating: 50 μg/cm^2 on artificial diet, second instar larvae, five to seven days, 25° C.; for mortality at 0.05 µg/cm2 / mortality at 0.5 µg/cm2 / mortality at 5 µg/cm2: Trichoplusia ni, read-out: CL Percent control (or mortality); for mortality at 0.05 µg/cm2: 0.05 μg/cm^2; for mortality at 0.5 µg/cm2: 0.5 μg/cm^2; for mortality at 5 µg/cm2: 5 μg/cm^2
Method: Bioassays on CL were conducted using a 128-well diet tray assay. One to five second instar CL larvae were placed in each well (3 mL) of the diet tray that had been previously filled with 1 mL of artificial diet to which 50 μg/cm^2 of the test molecule (dissolved in 50 μL of 90:10 acetone-water mixture) had been applied (to each of eight wells) and then allowed to dry. Trays were covered with a clear self-adhesive cover and held at 25° C., 14:10 light-dark for five to seven days. Percent mortality was recorded for the larvae in each well; activity in the eight wells was then averaged. The results are indicated in the table entitled “Table ABC: Biological Results” (See Table Section).
as §1

Row | SMILES | BAW % Control (or Mortality) rating [1] | CL % Control (or Mortality) rating [2] | further results
1 | O=C(NNS(=O)(=O)CCC(F)(F)F)c1ccc(/C(F)=C/C(c2cc(Cl)c(Cl)c(Cl)c2)C(F)(F)F)cc1C(F)(F)F (stereo not shown) [F24, (Z)-3,3,3-Trifluoro-N′-(4-(1,4,4,4-tetrafluoro-3-(3,4,5-trichlorophenyl)but-1-en-1-yl)-2-(trifluoromethyl)benzoyl)propane-1-sulfonohydrazide] | A (50-100) | A (50-100) | 
2 | CC(C)(C)C(=O)NNC(=O)c1ccc(/C(F)=C/C(c2cc(Cl)c(Cl)c(Cl)c2)C(F)(F)F)cc1C(F)(F)F (stereo not shown) [F29, (Z)—N′-Pivaloyl-4-(1,4,4,4-tetrafluoro-3-(3,4,5-trichlorophenyl)but-1-en-1-yl)-2-(trifluoromethyl)benzohydrazide] | A (50-100) | A (50-100) | 
3 | CN(NC(=O)CCC(F)(F)F)C(=O)c1ccc(/C(F)=C/C(c2cc(Cl)c(Cl)c(Cl)c2)C(F)(F)F)cc1C(F)(F)F (stereo not shown) [F13, (Z)—N-methyl-4-(1,4,4,4-tetrafluoro-3-(3,4,5-trichlorophenyl)but-1-en-1-yl)-N′-(4,4,4-trifluorobutanoyl)-2-(trifluoromethyl)benzohydrazide] | A (50-100) | A (50-100) | 
4 | Cc1cc(/C(F)=C/C(c2cc(Cl)c(Cl)c(Cl)c2)C(F)(F)F)ccc1C(=O)NN(C)C(=O)NCC(F)(F)F (stereo not shown) [F28, (Z)-1-Methyl-2-(2-methyl-4-(1,4,4,4-tetrafluoro-3-(3,4,5-trichlorophenyl)but-1-en-1-yl)benzoyl)-N-(2,2,2-trifluoroethyl)hydrazinecarboxamide] |  |  | mortality at 0.05 µg/cm2 [1]: 88%; mortality at 0.5 µg/cm2 [1]: 100%; mortality at 5 µg/cm2 [1]: 100%; mortality at 0.05 µg/cm2 [2]: 100%; mortality at 0.5 µg/cm2 [2]: 100%; mortality at 5 µg/cm2 [2]: 100%
5 | CC(F)(F)C(/C=C(\F)c1ccc(C(=O)NNC(=O)NCC(F)(F)F)c(C(F)(F)F)c1)c1cc(Cl)c(Cl)c(Cl)c1 (stereo not shown) [F12, (Z)-2-(4-(1,4,4-Trifluoro-3-(3,4,5-trichlorophenyl)pent-1-en-1-yl)-2-(trifluoromethyl)benzoyl)-N-(2,2,2-trifluoroethyl)hydrazinecarboxamide] | A (50-100) | A (50-100) | 
6 | O=C(CCC(F)(F)F)NNC(=O)c1ccc(/C(F)=C/C(c2cc(Cl)c(Cl)c(Cl)c2)C(F)(F)F)cc1Cl (stereo not shown) [F20, (Z)-2-Chloro-4-(1,4,4,4-tetrafluoro-3-(3,4,5-trichlorophenyl)but-1-en-1-yl)-N′-(4,4,4-trifluorobutanoyl)benzohydrazide] | A (50-100) | A (50-100) | 
7 | O=C(CCC(F)(F)F)NNC(=O)c1ccc(/C(F)=C/C(c2cc(Cl)c(Cl)c(Cl)c2)C(F)(F)F)cc1C(F)(F)F (stereo not shown) [F4, (Z)-4-(1,4,4,4-Tetrafluoro-3-(3,4,5-trichlorophenyl)but-1-en-1-yl)-N′-(4,4,4-trifluorobutanoyl)-2-(trifluoromethyl)benzohydrazide] | A (50-100) | A (50-100) | 
8 | O=C(NCC(F)(F)F)NNC(=O)c1ccc(/C(F)=C/C(c2cc(Cl)c(Cl)c(Cl)c2)C(F)(F)F)cc1C(F)(F)F (stereo not shown) [F3, (Z)-2-(4-(1,4,4,4-Tetrafluoro-3-(3,4,5-trichlorophenyl)but-1-en-1-yl)-2-(trifluoromethyl)benzoyl)-N-(2,2,2-trifluoroethyl)hydrazinecarboxamide] | A (50-100) | A (50-100) | 
9 | CN(NC(=O)c1ccc(/C(F)=C/C(c2cc(Cl)c(Cl)c(Cl)c2)C(F)(F)F)cc1C(F)(F)F)C(=O)CCC(F)(F)F (stereo not shown) [F11, (Z)—N′-Methyl-4-(1,4,4,4-tetrafluoro-3-(3,4,5-trichlorophenyl)but-1-en-1-yl)-N′-(4,4,4-trifluorobutanoyl)-2-(trifluoromethyl)benzohydrazide] | A (50-100) | A (50-100) | 
10 | CN(NC(=O)c1ccc(/C(F)=C/C(c2cc(Cl)c(Cl)c(Cl)c2)C(F)(F)F)cc1)C(=O)NCC(F)(F)F (stereo not shown) [FC1, (Z)-1-methyl-2-(4-(1,4,4,4-tetrafluoro-3-(3,4,5-trichlorophenyl)but-1-en-1-yl)benzoyl)-N-(2,2,2-trifluoroethyl)hydrazinecarboxamide, reference compound] |  |  | mortality at 0.05 µg/cm2 [1]: 0%; mortality at 0.5 µg/cm2 [1]: 0%; mortality at 5 µg/cm2 [1]: 25%; mortality at 0.05 µg/cm2 [2]: 0%; mortality at 0.5 µg/cm2 [2]: 0%; mortality at 5 µg/cm2 [2]: 7%
11 | O=C(CCC(F)(F)F)NNC(=O)c1ccc(/C(F)=C/C(c2cc(Cl)c(Cl)c(Cl)c2)C(F)(F)F)cc1I (stereo not shown) [F21, (Z)-2-Iodo-4-(1,4,4,4-tetrafluoro-3-(3,4,5-trichlorophenyl)but-1-en-1-yl)-N′-(4,4,4-trifluorobutanoyl)benzohydrazide] | A (50-100) | A (50-100) | 
12 | CN(NC(=O)c1ccc(/C(F)=C/C(c2cc(Cl)c(Br)c(Cl)c2)C(F)(F)F)cc1C(F)(F)F)C(=O)NCC(F)(F)F (stereo not shown) [F23, (Z)-2-(4-(3-(4-Bromo-3,5-dichlorophenyl)-1,4,4,4-tetratfluorobut-1-en-1-yl)-2-(trifluoromethyl)benzoyl)-1-methyl-N-(2,2,2-trifluoroethyl)hydrazinecarboxamide] | A (50-100) | A (50-100) | 
13 | CN(NC(=O)c1ccc(/C(F)=C/C(c2cc(Cl)cc(C(F)(F)F)c2)C(F)(F)F)cc1C(F)(F)F)C(=O)NCC(F)(F)F (stereo not shown) [PF9, (Z)-2-(4-(3-(3-Chloro-5-(trifluoromethyl)phenyl)-1,4,4,4-tetrafluorobut-1-en-1-yl)-2-(trifluoromethyl)benzoyl)-1-methyl-N-(2,2,2-trifluoroethyl)hydrazine-1-carboxamide] | A (50-100) | A (50-100) | 
14 | CN(NC(=O)c1ccc(/C(F)=C/C(c2cc(Br)c(Cl)c(Br)c2)C(F)(F)F)cc1C(F)(F)F)C(=O)NCC(F)(F)F (stereo not shown) [F18, (Z)-2-(4-(3-(3,5-Dibromo-4-chlorophenyl)-1,4,4,4-tetrafluorobut-1-en-1-yl)-2-(trifluoromethyl)benzoyl)-1-methyl-N-(2,2,2-trifluoroethyl)hydrazinecarboxamide] | A (50-100) | A (50-100) | 
15 | CN(NC(=O)c1ccc(/C(F)=C/C(c2cc(Cl)c(Cl)c(Cl)c2)C(F)(F)F)cc1C(F)(F)F)S(=O)(=O)CCC(F)(F)F (stereo not shown) [F19, (Z)-3,3,3-trifluoro-N-methyl-N′-(4-(1,4,4,4-tetrafluoro-3-(3,4,5-trichlorophenyl)but-1-en-1-yl)-2-(trifluoromethyl)benzoyl)propane-1-sulfonohydrazide] | A (50-100) | A (50-100) | 
16 | CN(NC(=O)c1ccc(/C(F)=C/C(c2cc(Cl)c(Cl)c(Cl)c2)C(F)(F)F)cc1C(F)(F)F)C(=O)NCC(F)(F)F (stereo not shown) [F1, (Z)-1-methyl-2-(4-(1,4,4,4-tetrafluoro-3-(3,4,5-trichlorophenyl)but-1-en-1-yl)-2-(trifluoromethyl)benzoyl)-N-(2,2,2-trifluoroethyl)hydrazinecarboxamide] | A (50-100) | A (50-100) | mortality at 0.05 µg/cm2 [1]: 100%; mortality at 0.5 µg/cm2 [1]: 100%; mortality at 5 µg/cm2 [1]: 100%; mortality at 0.05 µg/cm2 [2]: 100%; mortality at 0.5 µg/cm2 [2]: 100%; mortality at 5 µg/cm2 [2]: 100%
17 | C=Cc1c(Cl)cc(C(/C=C(\F)c2ccc(C(=O)NN(C)C(=O)NCC(F)(F)F)c(C(F)(F)F)c2)C(F)(F)F)cc1Cl (stereo not shown) [F17, (Z)-2-(4-(3-(3,5-Dichloro-4-vinylphenyl)-1,4,4,4-tetrafluorobut-1-en-1-yl)-2-(trifluoromethyl)benzoyl)-1-methyl-N-(2,2,2-trifluoroethyl)hydrazinecarboxamide] | A (50-100) | A (50-100) | 
18 | CN(NC(=O)c1ccc(/C(F)=C/C(c2cc(Cl)c(Cl)c(Cl)c2)C(F)(F)F)c2ccccc12)C(=O)NCC(F)(F)F (stereo not shown) [PF1, (Z)-1-Methyl-2-(4-(1,4,4,4-tetrafluoro-3-(3,4,5-trichlorophenyl)but-1-en-1-yl)-1-naphthoyl)-N-(2,2,2-trifluoroethyl)hydrazine-1-carboxamide] | A (50-100) | A (50-100) | 
19 | O=C(NCC(F)(F)F)NNC(=O)c1ccc(/C(F)=C/C(c2cc(Cl)c(Cl)c(Cl)c2)C(F)(F)F)cc1Br (stereo not shown) [F2, (Z)-2-(2-bromo-4-(1,4,4,4-tetrafluoro-3-(3,4,5-trichlorophenyl)but-1-en-1-yl)benzoyl)-N-(2,2,2-trifluoroethyl)hydrazinecarboxamide] | A (50-100) | A (50-100) | 
